In US5538993A, “Certain tetrahydrocannabinol-7-oic acid derivatives” (priority 1991, dated 1996):

Tests used:
intraocular pressure = assay: Reduction of intraocular pressure (anti-glaucoma); assay type: in vivo, rabbits; conditions: 50 μl drop of a 1% emulsion into rabbit eye
Description: Reduction of intraocular pressure in rabbits was determined by the addition of a 50 μl drop of a 1% emulsion of the cannabinoid into the rabbit eye. This test is a measure of anti-glaucoma activity.

Solubility = assay type: physicochemical; conditions: result in words
[1] = system: strychnine induced lethality; assay: Protection against strychnine induced lethality; assay type: in vivo; conditions: rats; result in words
Description: (§1) The present compounds are active in several tests generally used to indicate neuroprotection.

forebrain ischemia = assay: Protection against forebrain ischemia (unilateral occlusion); assay type: in vivo; conditions: mongolian gerbils, result in words
Description: as §1

mouse hot plate test = assay: Hot plate test for antinociception (55° C.); assay type: in vivo; conditions: 0.02 mg/kg oral, 90 min before test
Description: In the hot plate test for analgesia an aluminum surface was maintained at 55±1° C. by circulating water through passages in the metal. A clear plastic cylinder 18 cm in diameter and 26 cm high was placed on the surface to prevent escape. The end point was taken when the mouse either performed a hind paw lick or jumped off the surface; in no case were the animals kept for more than 30 secs on the plate. Mice were never used more than one time; control values were always measured at 11 a.m. and test values at 2 p.m. The drugs were administered orally 90 min before the hot plate test. The percent change in response time (latency) was calculated by comparing the mean of the control values with the mean of the test values and statistical signficance determined by a paired tetest analysis using software (Statview, 512) from Brainpower, Inc., Calabasas, Calif.

peritoneal leukocytes = assay: Leukocyte adhesion assay (peritoneal cells after oral dosing); assay type: in vivo, female CD-1 mice; conditions: cells collected 90 min after dosing; for number of adhering cells: ± S.D
Description: Leukocytes are thought to be major contributors to the inflammatory response and their ability in this regard is reflected by their adhesiveness to a variety of substrates [Audette, C. A., et al., ibid.] Sci., 47, 753 (1990)].
The details of the leukocytes adhesion assay have been previously reported [Audette et al., ibid.]. In brief, peritoneal cells from female CD-1 mice (20-25 g) were collected at 90 min following oral administration of the drug or vehicle (50 μl peanut oil). Cells from each treatment group (N=3) were pooled and equal numbers aliquoted into six culture dish wells (1.9 cm^2 area). After incubation for 18-20 hours, non-adhering cells were removed and the remaining cell monolayer quantitated by DNA measurement.

[2] = system: Picrotoxin induced lethality; assay: Protection against picrotoxin induced lethality; assay type: in vivo, Balb/c male mice; conditions: mice; result in words
Description: as §1
(§2) Balb/c male mice were administered with the drug 90 min before treatment with NMDA (125 mq/kg) or 120 min before picrotoxin (8 mg/kg) in emulsion, s.c. The survival rate shown in Table VI indicates number of survivors out of total number of animals used.

[3] = system: N-methyl-D-aspartate (NMDA) induced lethality; assay: Protection against NMDA induced lethality; assay type: in vivo, Balb/c male mice; conditions: mice; result in words
Description: as §1, §2

cataleptic response = assay: Cataleptic effects, ring test; assay type: in vivo, mouse; conditions: 5 min test period, ± SD
Description: The lack of CNS activity for the compounds described herein may be seen from the data shown in Table V. This was measured by the so-called "ring test" [Pertwee, R. G., et al., J. Pharmacol., 46, 753 (1972)] in which the cataleptic effects of cannabinoids can be quantitated. The compounds produced little or no response when compared with the parent drug.
The cataleptic response was measured using the ring test. Mice were placed on a horizontal wire ring 5.5 cm in diameter, which was attached to a 16 cm vertical rod. The hind paws and fore paws were placed at opposite sides of the ring. It is important that the ambient temperature is maintained at 30° C. and that the environment be free of auditory stimuli and bright lights. The criteria for immobility are detailed by Pertwee. The response is calculated as the fraction of time the mouse is immobile over a 5 min. test period. Measurements were always done between 2 and 4 p.m. and the animals were used only once.

NMDA receptor = assay: NMDA-blocking response in Xenopus oocytes injected with rat brain RNA; assay type: cell-based; conditions: upon return to ND 96 solution
Description: The oocyte is the most widely used system for studying the molecular, biophysical. and pharmacological properties of expressed voltage- or transmitter-operated ion channels. This giant cell offers several advantages for this type of studies. It can be readily used for two-electrode voltage clamp studies, translates injected mRNA from different sources and functionally expresses the translated proteins, and it is also readily amenable for intracellular microinjections. Importantly, the recordings of transmitter or voltage-induced currents in a single oocyte are extremely stable and can be done, without rundown, for 2-3 hours; this allows the performance of a full dose-response relation in single oocytes.
Neuronal receptors for excitatory amino acid (EAA) are becoming increasingly important for the understanding of normal and pathological brain function. Quantitative pharmacological studies of EAA receptor/ion channel. complex are difficult to study in neurons. Therefore, Xenopus oocyte injected with brain MRNA is now the preparation of choice.
The response to N-methyl-D-aspartate (NMDA) in oocytes injected with rat brain mRNA was characterized and the effects of HU-245 were studied.
Female Xenopus were anesthetized by immersion in water containing 0.15% tricaine methanesulfonate and a small incision was made in the lower abdomen. Ovary fragments were removed into ND-96. […]

CCCCCCC(C)(C)c1cc(OC(C)=O)c2c(c1)OC(C)(C)[C@H]1CC=C(C(=O)O)C[C@H]21 [HU-245, (3S, 4S) -THC-DMH-7-oic acid, acetate]
reduction of intraocular pressure (intraocular pressure): Significant reduction
solubility compared with prior art compounds (Solubility): higher than that of prior art compounds
protection against strychnine induced lethality [1]: protects against strychnine induced lethality
protection against forebrain ischemia (forebrain ischemia): shown to protect against forebrain ischemia
percent change in latency (mouse hot plate test): 10.7%
adhering cells, percent of control (peritoneal leukocytes; 0.10 mg/kg oral): 124% of control
number of adhering cells (peritoneal leukocytes; 0.10 mg/kg oral): 0.66 ± 0.08 number of adhering cells × 10^-6
number of adhering cells (peritoneal leukocytes; 0.50 mg/kg oral): 0.85 ± 0.08 number of adhering cells × 10^-6
number of adhering cells (peritoneal leukocytes; 1.00 mg/kg oral): 0.30 ± 0.04 number of adhering cells × 10^-6
blocking of picrotoxin induced lethality [2]: blocker
blocking of NMDA induced lethality [3]: blocker
cataleptic response (fraction of time immobile) (cataleptic response; 0.5 mg/kg): 6.8 ± 2.4
cataleptic response (fraction of time immobile) (cataleptic response; 1.0 mg/kg): 12.0 ± 6.0
reversibility of effect on NMDA response (NMDA receptor): reversible
